# Several values for one entry are separate records, joined by “and”; a condition that tells them apart may be missing. Equal entries are not always repeated. Toxic doses and inconclusive results are not listed. Numbered stars: 1 amine (or outer) side, 2 acyl side, 3 side chain; on linkers, the order of the positions; unused ones are H or OH. Bridge positions count the residues as written; N and C are the ends. Square brackets hold non-standard residues; d marks the D form. Peptide text beside a SMILES is read from it. * marks the point of attachment. ξ: configuration not given here. ξOrn(4,5-diOH) = O=C(C(CC(O)C(O)N[*:3])N[*:1])[*:2]; ξhTyr(βξ-OH,γξ-OH) = NC(C(=O)O)C(O)C(O)c1ccc(O)cc1; ξPro(3ξ-OH,4ξ-Me) = CC1CNC(C(=O)O)C1O; X22 = CCCCC/C=C/C/C=C\CCCCCCCC(=O)*; Hyp = O=C(O)[CH]1C[CH](O)CN1
# Test system: P388 leukemia ip, CD2F1 mice, survival T/C
# Test: NCI In Vivo Anticancer Drug Screen. Data for tumor model P388 Leukemia (intraperitoneal) in CD2F1 (CDF1) mice
# Details: endpoint: median survival time, higher = longer survival
# Summary of the method: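 Mice carrying the transplanted tumor received test compound or vehicle. Survival was recorded in each group, and the value is the treated-group measurement divided by that of the vehicle-treated control group.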
# [1] = dose: 60.0 mg/kg/injection, schedule: Q01DX005 (ip), vehicle: saline
# [2] = dose: 120.0 mg/kg/injection, schedule: Q01DX005 (ip), vehicle: saline
# [3] = dose: 240.0 mg/kg/injection, schedule: Q01DX005 (ip), vehicle: saline
# [4] = dose: 50.0 mg/kg/injection, schedule: Q01DX009 (ip), vehicle: saline with Tween-80
# [5] = dose: 50.0 mg/kg/injection, schedule: Q01DX005 (ip), vehicle: Klucel (hydroxypropylcellulose) (HPC)
# [6] = dose: 100.0 mg/kg/injection, schedule: Q01DX005 (ip), vehicle: Klucel (hydroxypropylcellulose) (HPC)
# [7] = dose: 200.0 mg/kg/injection, schedule: Q01DX005 (ip), vehicle: Klucel (hydroxypropylcellulose) (HPC)
# [8] = dose: 50.0 mg/kg/injection, schedule: Q01DX005 (ip), vehicle: saline with Tween-80
# [9] = dose: 100.0 mg/kg/injection, schedule: Q01DX005 (ip), vehicle: saline with Tween-80
# [10] = dose: 200.0 mg/kg/injection, schedule: Q01DX005 (ip), vehicle: saline with Tween-80
smiles,measurement,setting,value
[Cl][Ru]([Cl])([Cl])([Cl])([Cl])[Cl],T/C,"dose: 6.25 mg/kg/injection, schedule: Q04DX003 (ip), vehicle: saline",117 % of control and 123 % of control
same,T/C,"dose: 12.5 mg/kg/injection, schedule: Q04DX003 (ip), vehicle: saline",117 % of control and 123 % of control
same,T/C,"dose: 25.0 mg/kg/injection, schedule: Q04DX003 (ip), vehicle: saline",117 % of control
same,T/C,"dose: 50.0 mg/kg/injection, schedule: Q04DX003 (ip), vehicle: saline",123 % of control
same,T/C,"dose: 100.0 mg/kg/injection, schedule: Q04DX003 (ip), vehicle: saline",111 % of control
O=C(Oc1ccccc1)OC1CCN(C(=O)Oc2ccccc2)CC1,T/C,"dose: 50.0 mg/kg/injection, schedule: Q01DX001 (ip), vehicle: Klucel (hydroxypropylcellulose) (HPC)",100 % of control
same,T/C,"dose: 100.0 mg/kg/injection, schedule: Q01DX001 (ip), vehicle: Klucel (hydroxypropylcellulose) (HPC)",102 % of control
same,T/C,"dose: 200.0 mg/kg/injection, schedule: Q01DX001 (ip), vehicle: Klucel (hydroxypropylcellulose) (HPC)",100 % of control
same,T/C,"dose: 400.0 mg/kg/injection, schedule: Q01DX001 (ip), vehicle: Klucel (hydroxypropylcellulose) (HPC)",100 % of control
CSC(=S)N/N=C\c1c(CO)cnc(C)c1O,T/C,"dose: 100.0 mg/kg/injection, schedule: Q04DX002 (ip), vehicle: saline with Tween-80",116 % of control
same,T/C,"dose: 400.0 mg/kg/injection, schedule: Q04DX002 (ip), vehicle: saline with Tween-80",113 % of control
CC1C(=O)OCC1(C)O (configuration not stated),T/C,[1],107 % of control
same,T/C,[2],103 % of control
same,T/C,[3],109 % of control
"CCCCC/C=C/C/C=C\CCCCCCCC(=O)NC1CC(O)C(O)NC(=O)C2C(O)C(C)CN2C(=O)C(C(C)O)NC(=O)C(C(O)C(O)c2ccc(O)cc2)NC(=O)C2CC(O)CN2C(=O)C(C(C)O)NC1=O (stereo not drawn) (X22-[ξOrn(4,5-diOH)]T[Hyp][ξhTyr(βξ-OH,γξ-OH)]T[ξPro(3ξ-OH,4ξ-Me)]; lactam 1-C; configuration not given here)",T/C,"dose: 0.25 mg/kg/injection, schedule: Q01DX009 (ip), vehicle: lactate",100 % of control
same,T/C,"dose: 0.5 mg/kg/injection, schedule: Q01DX009 (ip), vehicle: lactate",104 % of control
CSc1nc(=O)c(=O)nc(Nc2ccccc2)n1-c1ccccc1,T/C,[4],86 % of control
same,T/C,"dose: 200.0 mg/kg/injection, schedule: Q01DX009 (ip), vehicle: saline with Tween-80",87 % of control
CCCCCCCCCCCCSC(SCCCCCCCCCCCC)SCCCCCCCCCCCC,T/C,"dose: 12.5 mg/kg/injection, schedule: Q01DX009 (ip), vehicle: saline with Tween-80",97 % of control
same,T/C,"dose: 25.0 mg/kg/injection, schedule: Q01DX009 (ip), vehicle: saline with Tween-80",92 % of control
same,T/C,[4],99 % of control
same,T/C,"dose: 100.0 mg/kg/injection, schedule: Q01DX009 (ip), vehicle: saline with Tween-80",106 % of control
COc1c(/C=C/C=O)cc2c(c1OC)OCO2,T/C,"dose: 25.0 mg/kg/injection, schedule: Q01DX005 (ip), vehicle: Klucel (hydroxypropylcellulose) (HPC)",97 % of control
same,T/C,[5],97 % of control
same,T/C,[6],104 % of control
same,T/C,[7],100 % of control
CC(=O)C1(O)Cc2c(O)c3c(c(O)c2C(OC2CC(N)C(O)C(C)O2)C1)C(=O)c1ccccc1C3=O (configuration not stated),T/C,"dose: 0.03 mg/kg/injection, schedule: Q01DX009 (ip), vehicle: water",116 % of control
same,T/C,"dose: 0.1 mg/kg/injection, schedule: Q01DX009 (ip), vehicle: water",150 % of control and 155 % of control and 158 % of control
same,T/C,"dose: 0.12 mg/kg/injection, schedule: Q01DX005 (ip), vehicle: water",151 % of control
same,T/C,"dose: 0.15 mg/kg/injection, schedule: Q04DX003 (ip), vehicle: water",106 % of control
same,T/C,"dose: 0.2 mg/kg/injection, schedule: Q01DX009 (ip), vehicle: water",167 % of control and 171 % of control and 183 % of control
same,T/C,"dose: 0.21 mg/kg/injection, schedule: Q04DX003 (ip), vehicle: water",166 % of control
same,T/C,"dose: 0.25 mg/kg/injection, schedule: Q01DX005 (ip), vehicle: water",164 % of control
same,T/C,"dose: 0.3 mg/kg/injection, schedule: Q04DX003 (ip), vehicle: water",114 % of control
same,T/C,"dose: 0.36 mg/kg/injection, schedule: Q04DX003 (ip), vehicle: water",170 % of control
same,T/C,"dose: 0.39 mg/kg/injection, schedule: Q01DX009 (ip), vehicle: water",170 % of control
same,T/C,"dose: 0.4 mg/kg/injection, schedule: Q01DX009 (ip), vehicle: water",205 % of control
same,T/C,"dose: 0.5 mg/kg/injection, schedule: Q01DX005 (ip), vehicle: water",180 % of control
same,T/C,"dose: 0.5 mg/kg/injection, schedule: Q01DX005 (oral), vehicle: water",104 % of control
same,T/C,"dose: 0.6 mg/kg/injection, schedule: Q04DX003 (ip), vehicle: water",118 % of control
same,T/C,"dose: 0.78 mg/kg/injection, schedule: Q01DX009 (ip), vehicle: water",173 % of control
same,T/C,"dose: 1.0 mg/kg/injection, schedule: Q01DX005 (ip), vehicle: water",114 % of control
same,T/C,"dose: 1.0 mg/kg/injection, schedule: Q01DX005 (oral), vehicle: water",107 % of control
same,T/C,"dose: 1.3 mg/kg/injection, schedule: Q01DX001 (ip), vehicle: water",97 % of control
same,T/C,"dose: 1.8 mg/kg/injection, schedule: Q01DX001 (ip), vehicle: water",97 % of control
same,T/C,"dose: 2.0 mg/kg/injection, schedule: Q01DX005 (oral), vehicle: water",112 % of control
same,T/C,"dose: 2.4 mg/kg/injection, schedule: Q04DX003 (ip), vehicle: water",152 % of control and 174 % of control
same,T/C,"dose: 4.0 mg/kg/injection, schedule: Q01DX005 (oral), vehicle: water",152 % of control
same,T/C,"dose: 4.8 mg/kg/injection, schedule: Q04DX003 (ip), vehicle: water",102 % of control and 106 % of control
same,T/C,"dose: 8.0 mg/kg/injection, schedule: Q01DX005 (oral), vehicle: water",107 % of control
same,T/C,"dose: 9.6 mg/kg/injection, schedule: Q04DX003 (ip), vehicle: water",96 % of control
Nc1nnc(Cc2ccccc2)n1N,T/C,"dose: 15.0 mg/kg/injection, schedule: Q01DX005 (ip), vehicle: saline",100 % of control
same,T/C,"dose: 30.0 mg/kg/injection, schedule: Q01DX005 (ip), vehicle: saline",101 % of control
same,T/C,"dose: 60.0 mg/kg/injection, schedule: Q01DX005 (ip), vehicle: saline with Tween-80",98 % of control
same,T/C,[1],100 % of control and 117 % of control
same,T/C,"dose: 120.0 mg/kg/injection, schedule: Q01DX005 (ip), vehicle: saline with Tween-80",100 % of control
same,T/C,[2],116 % of control
same,T/C,"dose: 240.0 mg/kg/injection, schedule: Q01DX005 (ip), vehicle: saline with Tween-80",94 % of control
Fc1ccccc1N=Cc1ccc(C=Nc2ccccc2F)cc1,T/C,"dose: 15.0 mg/kg/injection, schedule: Q01DX005 (ip), vehicle: Klucel (hydroxypropylcellulose) (HPC)",100 % of control
same,T/C,"dose: 30.0 mg/kg/injection, schedule: Q01DX005 (ip), vehicle: Klucel (hydroxypropylcellulose) (HPC)",92 % of control
same,T/C,"dose: 60.0 mg/kg/injection, schedule: Q01DX005 (ip), vehicle: Klucel (hydroxypropylcellulose) (HPC)",95 % of control
CCCCN(CCCC)CC(O)c1ccc(OC)c2ccccc12 (configuration not stated),T/C,[8],102 % of control
same,T/C,[9],107 % of control
same,T/C,[10],98 % of control
CCC(C)C(N)C(=O)NC(C(=O)O)C(C)C (stereo not drawn) (H-Ile-Val-OH; configuration not given here),T/C,[1],95 % of control
same,T/C,[2],103 % of control
same,T/C,[3],95 % of control
CN(C)CCC(=O)c1cccc([N+](=O)[O-])c1,T/C,"dose: 12.5 mg/kg/injection, schedule: Q01DX009 (ip), vehicle: saline",104 % of control
same,T/C,"dose: 25.0 mg/kg/injection, schedule: Q01DX009 (ip), vehicle: saline",101 % of control
same,T/C,"dose: 50.0 mg/kg/injection, schedule: Q01DX009 (ip), vehicle: saline",104 % of control and 109 % of control
same,T/C,"dose: 100.0 mg/kg/injection, schedule: Q01DX009 (ip), vehicle: saline",98 % of control
NC(=O)N=Nc1ccc(Cl)cc1,T/C,[8],104 % of control
same,T/C,[9],101 % of control
same,T/C,[10],104 % of control
COCC(=O)C1(O)Cc2c(O)c3c(c(O)c2C(O)C1)C(=O)c1c(OC)cccc1C3=O (configuration not stated),T/C,"dose: 1.56 mg/kg/injection, schedule: Q01DX009 (ip), vehicle: other",92 % of control
same,T/C,"dose: 3.13 mg/kg/injection, schedule: Q01DX009 (ip), vehicle: other",101 % of control
same,T/C,"dose: 6.25 mg/kg/injection, schedule: Q01DX009 (ip), vehicle: other",101 % of control
same,T/C,"dose: 12.5 mg/kg/injection, schedule: Q01DX009 (ip), vehicle: other",94 % of control
same,T/C,"dose: 25.0 mg/kg/injection, schedule: Q01DX009 (ip), vehicle: other",92 % of control
CC(C)c1ccc(Nc2n[nH]c(=S)s2)cc1,T/C,[5],105 % of control
same,T/C,[6],100 % of control
same,T/C,[7],99 % of control

# Reference: PubChem BioAssay AID330 (DTP/NCI, 2004)
